SMILES strings stand for the structures.

The assay has as its target T1, Bovine lysyl oxidase (LOX) (Bos taurus, UniProt P33072).
T1 construct: from tissue; host or cells: adult bovine tendon
T1 sequence (P33072 170-418): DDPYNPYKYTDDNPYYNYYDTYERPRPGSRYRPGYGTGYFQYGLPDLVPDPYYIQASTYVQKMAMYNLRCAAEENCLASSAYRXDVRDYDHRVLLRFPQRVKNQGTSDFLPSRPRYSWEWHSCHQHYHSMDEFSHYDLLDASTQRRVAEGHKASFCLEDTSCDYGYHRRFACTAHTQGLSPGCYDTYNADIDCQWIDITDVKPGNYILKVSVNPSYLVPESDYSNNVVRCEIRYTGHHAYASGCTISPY
As to the kind of experiment: LOX inhibition assay, fluorometric (cadaverine / HRP / Amplex Red). The assay is classed as biochemical. The following applies: LOX extracted from bovine tendon; 30 min preincubation at 37° C.; 5 mM cadaverine; read-out: Activity Range LOX. Here is the method:
The ability of compounds to inhibit prototypic LOX was determined using a fluorometric assay. This assay measures the activity of lysyl oxidases by coupling the reaction with horseradish peroxidase-catalyzed […]. The activity assay protocol uses cadaverine as substrate that releases hydrogen peroxide upon transformation by prototypic LOX enzyme present in the sample. Hydrogen peroxide was in turn detected using a red fluorescence substrate for HRP-coupled reactions (Amplex Red Enzyme Assays, Thermo Scientific Fisher). This lead to an increase in fluorescence that can be easily detected at Ex/Em=540/590 nm in a fluorescence microplate
Bovine lysyl oxidase (LOX) was extracted by adapting the methodology from [Kagan et al. 1979 and Borel et al. 2001.] from bovine tendon: Frozen adult bovine tendon was placed in room temperature water to defrost, and then membranes were removed and the remaining tissue cut into 1 cm pieces. The material was first passed through a course mesh meat grinder, and this mince was passed through a fine mesh grinder. The mince was homogenized in 10 v/w of buffer (16 mM sodium phosphate buffer pH 7.8, 400 mM NaCl) using a Waring blender. The homogenate was centrifuged at 15,000×g for 15 min at 4° C. After centrifugation, the supernatant was discarded and the pellets resuspended in 10 volumes of the same buffer. The mixture was blended again and centrifuged with the same settings. This time the pellets were blended in 3 volumes of extraction buffer (16 mM sodium phosphate buffer pH 7.8) and left to incubate at 4° C. for 2 h. After this time, the slurry was centrifuged with the same settings as described above. The supernatant was used in an ultrafiltration step to remove large proteins by size exclusion through a 30 kDalton filter (EMD Millipore). The filtrate was mixed with DEAE Sephadex (GE Healthcare), or passed over a MonoQ FPLC column. After two washes, one in 16 mM sodium phosphate buffer pH 7.8, 380 mM NaCl, and another in 16 mM sodium phosphate buffer pH 7.8, the proteins were eluted with 16 mM sodium phosphate pH 7.8, 10 μM CuSO4, and 4 M urea. Fractions containing Lox activity were collected and stored frozen at −70° C.
Final concentration in the LOX assay is shown in Table 6 below and performed in a total volume of […].
7 μl of freshly prepared reaction buffer were delivered to reaction wells. Compounds were resuspended in 100% DMSO at 10 mM and delivered into buffer using acoustic technology (Echo550; nanoliter range). A 2.85× solution of LOX protein in reaction buffer was prepared (“LOX solution”) and 7 μl of LOX solution was added into the reaction wells. Buffer only was added to column 1 for no protein control. Reactions were incubated for 30 minutes at 37° C. A 3.33× mixture of cadaverine, Amplex Red, and HRP (“Substrate/Detection Mix) was prepared and subsequently 6 μL of the mixture was added to each reaction well. Progress of reactions was monitored for 120 minutes at 37° C. using Clariostar plate reader (ex530-12, ems 600-40). For all activity assays, pan-LOX inhibitor CCT365623 (Tang et al, 2017) and LOXL2/LOXL3 inhibitor PAT-1251 (PharmaKea) were included as standards.
The slope of the linear portion of the progress curve was calculated using Clariostar software. Typical analysis interval was between 20-50 min, but varied between experiments. The background subtracted signals (No protein wells were considered as background) were converted to % activity relative to DMSO controls. Data was analyzed using GraphPad Prism 4 with “sigmoidal dose-response (variable slope)”; 4 parameters with Hill Slope. Constraints: Bottom=Constant equal to 0. Top=Must be less than 120.
Consider `NCc1ccnc(S(=O)(=O)C[C@@H]2C[C@H](c3ccccc3)CN2S(=O)(=O)N2CCS(=O)(=O)CC2)c1` [Example 196A, 4-(((2S,4R)-2-(((4-(aminomethyl)pyridin-2-yl)sulfonyl)methyl)-4-phenylpyrrolidin-1-yl)sulfonyl)thiomorpholine 1,1-dioxide 2,2,2-trifluoroacetate], for which the IC50 was 500 to 1000 nM.
Under `NCc1ccnc(S(=O)(=O)C[C@H]2C[C@@H](c3ccccc3)CN2S(=O)(=O)N2CCS(=O)(=O)CC2)c1` [Example 196B, 4-(((2R,4S)-2-(((4-(aminomethyl)pyridin-2-yl)sulfonyl)methyl)-4-phenylpyrrolidin-1-yl)sulfonyl)thiomorpholine 1,1-dioxide 2,2,2-trifluoroacetate] stands 500 to 1000 nM; under `NCc1ccnc(S(=O)(=O)C[C@@H]2C[C@H](c3ccccc3)CN2S(=O)(=O)N2CCS(=O)(=O)CC2)c1` (racemic) [Example 196, cis-4-((2-(((4-(Aminomethyl)pyridin-2-yl)sulfonyl)methyl)-4-phenylpyrrolidin-1-yl)sulfonyl)thiomorpholine 1,1-dioxide 2,2,2-trifluoroacetate], 1000 to 30000 nM; under `NCc1ccnc(S(=O)(=O)C[C@@H]2C[C@H](c3ccccc3)CN2S(=O)(=O)N2CCOCC2)c1` (single isomer, unassigned) [Example 195B], 1000 to 30000 nM.
Under `NCc1ccnc(S(=O)(=O)C[C@@H]2C[C@H](c3ccccc3)CN2S(=O)(=O)N2CCOCC2)c1` (racemic) [Example 195, Cis-(2-(((1-(Morpholinosulfonyl)-4-phenylpyrrolidin-2-yl)methyl)sulfonyl)pyridin-4-yl)methanamine 2,2,2-trifluoroacetate] stands 1000 to 30000 nM; under `NCc1ccnc(S(=O)(=O)C[C@H]2C[C@@H](c3ccccc3)CN2S(=O)(=O)N2CCOCC2)c1` (single isomer, unassigned) [Example 195A], 1000 to 30000 nM.

Source of the values: US12016864B2, “LOX enzyme inhibiting methods and compositions” (ANOVIA BIOSCIENCES, INC., priority 2021, dated 2024).
